{"source": "paper PMC9873282", "about": "“Design, synthesis and evaluation of quinoline-O-carbamate derivatives as multifunctional agents for the treatment of Alzheimer’s disease” (Journal of Enzyme Inhibition and Medicinal Chemistry, 2023)", "key": {"hBuChE [1]": {"target": "T1, hBuChE (Homo sapiens, UniProt P06276)", "T1 construct": "hBuChE, human serum BuChE; purchased Sigma Aldrich; host or cells: human serum (natural source)", "T1 sequence (P06276 29-602)": "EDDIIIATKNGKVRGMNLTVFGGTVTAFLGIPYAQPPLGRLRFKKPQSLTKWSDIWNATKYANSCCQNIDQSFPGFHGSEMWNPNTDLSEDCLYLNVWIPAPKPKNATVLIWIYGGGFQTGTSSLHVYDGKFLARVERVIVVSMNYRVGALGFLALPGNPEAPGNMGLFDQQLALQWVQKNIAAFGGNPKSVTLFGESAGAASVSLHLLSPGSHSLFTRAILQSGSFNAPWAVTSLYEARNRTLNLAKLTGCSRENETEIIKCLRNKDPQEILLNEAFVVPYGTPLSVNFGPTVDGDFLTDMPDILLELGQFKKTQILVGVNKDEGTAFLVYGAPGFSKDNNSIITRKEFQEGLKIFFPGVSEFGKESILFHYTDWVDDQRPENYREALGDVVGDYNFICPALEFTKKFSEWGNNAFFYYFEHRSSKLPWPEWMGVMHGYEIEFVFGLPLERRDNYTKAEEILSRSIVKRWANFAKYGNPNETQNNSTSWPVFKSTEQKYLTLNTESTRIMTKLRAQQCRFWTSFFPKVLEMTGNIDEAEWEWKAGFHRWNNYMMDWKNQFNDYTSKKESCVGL", "test": "hBuChE reversibility of inhibition (recovery after dilution)", "assay_type": "biochemical"}, "eeAChE": {"target": "T2, eeAChE (Electrophorus electricus, UniProt O42275)", "T2 construct": "eeAChE, from the electric eel; purchased Sigma Aldrich; host or cells: electric eel (natural source)", "T2 sequence (O42275 24-633)": "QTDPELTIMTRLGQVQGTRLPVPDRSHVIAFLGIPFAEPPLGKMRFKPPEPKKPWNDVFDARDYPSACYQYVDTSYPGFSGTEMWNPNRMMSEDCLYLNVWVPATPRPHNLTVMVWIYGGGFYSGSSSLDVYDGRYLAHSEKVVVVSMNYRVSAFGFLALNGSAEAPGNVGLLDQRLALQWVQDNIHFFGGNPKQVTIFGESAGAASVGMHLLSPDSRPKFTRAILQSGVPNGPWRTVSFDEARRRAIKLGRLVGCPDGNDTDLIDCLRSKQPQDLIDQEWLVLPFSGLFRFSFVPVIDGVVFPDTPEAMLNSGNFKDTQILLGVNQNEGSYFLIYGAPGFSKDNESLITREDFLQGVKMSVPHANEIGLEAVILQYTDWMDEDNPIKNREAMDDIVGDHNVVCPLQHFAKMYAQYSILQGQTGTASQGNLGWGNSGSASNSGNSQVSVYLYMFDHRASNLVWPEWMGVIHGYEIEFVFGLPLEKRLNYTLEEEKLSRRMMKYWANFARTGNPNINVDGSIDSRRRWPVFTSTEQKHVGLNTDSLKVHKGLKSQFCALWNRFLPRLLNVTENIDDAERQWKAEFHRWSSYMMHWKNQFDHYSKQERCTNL", "test": "biochemical", "set-up": "species or system electric eel", "protocol": "(§1) The inhibitory activities of the synthesised compounds against eeAChE (from electric eel) and eqBuChE (from equine serum) were tested by the modified Ellman’s method[26]^,[27]. […] The determination of AChE and BuChE inhibitory potency of the synthesised compounds were evaluated by Ellman assay, the detailed procedure referred to our previous work[26]^,[27]."}, "eqBuChE": {"target": "T3, eqBuChE (Equus caballus, UniProt P81908)", "T3 construct": "eqBuChE, from equine serum; purchased Sigma Aldrich; host or cells: equine serum (natural source)", "T3 sequence (P81908 whole entry)": "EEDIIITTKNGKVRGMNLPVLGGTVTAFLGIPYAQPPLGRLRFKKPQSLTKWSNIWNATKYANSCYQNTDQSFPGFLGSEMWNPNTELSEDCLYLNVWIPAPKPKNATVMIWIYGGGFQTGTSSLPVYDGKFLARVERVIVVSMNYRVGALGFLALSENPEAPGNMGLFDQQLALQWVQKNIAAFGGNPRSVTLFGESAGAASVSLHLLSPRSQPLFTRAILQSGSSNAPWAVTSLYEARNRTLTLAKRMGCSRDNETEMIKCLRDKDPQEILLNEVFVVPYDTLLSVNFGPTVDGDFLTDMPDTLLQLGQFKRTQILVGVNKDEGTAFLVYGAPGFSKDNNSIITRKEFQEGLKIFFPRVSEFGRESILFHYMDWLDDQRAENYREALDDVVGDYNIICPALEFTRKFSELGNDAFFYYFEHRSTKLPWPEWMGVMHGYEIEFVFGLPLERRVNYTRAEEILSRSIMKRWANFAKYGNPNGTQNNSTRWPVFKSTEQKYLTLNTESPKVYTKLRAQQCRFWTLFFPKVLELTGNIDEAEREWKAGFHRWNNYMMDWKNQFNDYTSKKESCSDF", "test": "biochemical", "set-up": "species or system equine", "conditions": "for inhibition at 25 µM: read-out: eqBuChE inhibition rate; for IC50: BuChE from equine serum; for SI = IC50 (AChE)/IC50 (BuChE): eeAChE/eqBuChE", "protocol": "as §1"}, "ACh": {"system": "ACh", "test": "ACh level in AlCl3-induced zebrafish AD model tissue", "assay_type": "in vivo", "conditions": "8 µM; model 7.3, untreated 13.9 pmol/L", "from_the_text": ". After the behavioural experiments, the 168hpf zebrafish were killed and ground, the tissue were used to test the AChE activity and ACh levels. […] ."}, "[2]": {"system": "Aβ25-35-induced PC12 cells injury", "test": "Neuroprotective effect on Aβ25-35-induced PC12 cells injury (CCK-8)", "assay_type": "cell-based", "conditions": "25 µM Aβ25-35; model cell viability 57.3%", "protocol": "(§2) The neuroprotective effect of compounds 3a, 3c, 3e, 3f, 3k, 3m, and 3n on Aβ25–35-induced PC12 cells injury were evaluated using CCK-8 assay. […] Furthermore, as shown in Figure 12(B), when PC12 cells were exposed to 25 µM Aβ25-35, the cell viability sharply declined to 57.3% (p < 0.01) compared with untreated group.\n• Preparation of Aβ25-35 aggregation. Aβ25-35 was purchased from sigma. 1 mg Aβ25-35 was dissolved in 943 µL of sterilised deionised water to obtain 1 mM stock solution, aliquoted, –20 °C preservation. Removing the appropriate volume in a 48-well plate and incubated in a 37 °C incubator for two days to allow its ageing to accumulate and produce neurotoxicity. After aggregation was completed, the solution was diluted with PBS to get 25 µM solution of Aβ25-35 aggregation. • Neuroprotective effects of compounds on Aβ25-35-induced PC12 cells injury\n(§3) The PC12 cells during the logarithmic growth phase were digested and centrifuged with pancreatic enzyme solution, the cells were resuspended by adding the prepared media solution, and piped evenly with a pipette to seed in a 96-well cell culture plate (cell concentration adjusted to 2.0 × 10^4 cell·mL^−1). Each well was added 100 µL complete medium was added to each well and incubated at 37 °C and 5% CO2 for 24 h.\nAfter incubation for 24 h, PC12 cells were divided into blank group, control group, Aβ25-35 model group and tested compounds group (5, 10, 20 µM). Then the original medium was discarded, and 100 µL new complete medium were added to PC12 cells, and the tested compounds group was added to 100 µL complete medium containing different concentrations (5, 10, and 20 µM) of tested compounds, incubated for 2 h at 37 °C, 5% CO2 conditions. After incubation for 2 h, 10 µL Aβ25-35 solution was added to the tested compounds groups and model group (the final concentration of Aβ25-35 was 25 µM), and incubated for 24 h at 37 °C, 5% CO2 conditions, 10 µL CCK-8 was added to each well and further incubated for 1 h at 37 °C and 5% CO2. Finally, the OD value was measured at 450 nm using a microplate reader, and each concentration set three wells. The cell survival rate (%) was determined according to the following formula: cell viability (%) = {(ODdrug−ODblank)}/{(ODcontrol−ODblank)}."}, "IL-1β": {"system": "IL-1β", "test": "IL-1β production in LPS-stimulated BV-2 cells (ELISA)", "assay_type": "cell-based", "conditions": "1 µg/mL LPS 24 h", "protocol": "(§4) Firstly, the cytotoxicity of compounds 3a, 3c, 3e, 3f, 3k, 3m and 3n were tested using CCK8 assay.\n(§5) BV-2 cells (2 × 10^5 cells/well) were seeded in a 24-well cell culture plates. The cells were divided into blank control group, model group (1 µg/mL LPS), LPS + 2 µM compound group, LPS + 1 µM compound group. Each drug group was pre-treated with corresponding concentration of drug solution for 8 h. After 8 h, the culture medium was aspirated out. Except for the blank control group, which was added with DMEM medium, the other groups were stimulated with 1 µg/mL LPS for 24 h. Then cell supernatant was aspirated and centrifuged at 3000 rpm for 3 min. The content of NO in cell culture supernatant was determined by Griess method, and the levels of cytokines IL-6 and IL-1β in cell culture supernatant were determined by IL-6 ELISA kit and IL-1β ELISA kit, respectively."}, "BV-2 cells": {"system": "BV-2 cells", "test": "Cytotoxicity on BV-2 cells (CCK8 assay)", "assay_type": "cell-based", "conditions": "compounds at 2 µM", "protocol": "as §4\nBV-2 cells were cultured in DMEM containing 10% foetal bovine serum, 100 U/mL penicillin, 100 U/mL streptomycin, and 1% nonessential amino acid at 37 °C with 5% CO2.\nBV-2 cells in logarithmic growth stage were digested and centrifuged, and then resuspended in DMEM medium containing 1% penicillin-streptomycin and 10% foetal bovine serum. The cells was adjusted to 1.2 × 10^4 cells/well, and then seeded evenly in 96-well cell culture plates. The cells were incubated for 36 h at 37 °C with 5% CO2. After incubation, the cells were added to different concentrations (10 and 2 µM) of tested compounds, and incubated for 24 h at 37 °C with 5% CO2. Then, 10 µL CCK-8 solution was added to each well, and incubated for another 1 h at 37 °C with 5% CO2. The OD values were tested at […]. The cell viability (%) = {(ODdrug−ODblank)}/{(ODcontrol−ODblank)} × 100%."}, "PC12 cells": {"system": "PC12 cells", "test": "Cytotoxicity on PC12 cells", "assay_type": "cell-based", "conditions": "at concentration below 40 µM", "protocol": "as §2, §3"}, "IL-6": {"system": "IL-6", "test": "IL-6 production in LPS-stimulated BV-2 cells (ELISA)", "assay_type": "cell-based", "conditions": "1 µM and 2 µM; 1 µg/mL LPS 24 h", "protocol": "as §4, §5"}, "NO": {"system": "NO", "test": "NO release in LPS-stimulated BV-2 cells (Griess method)", "assay_type": "cell-based", "conditions": "1 µg/mL LPS 24 h", "protocol": "as §4, §5"}, "hAChE": {"target": "T4, hAChE (Homo sapiens, UniProt P22303)", "T4 construct": "hAChE, from human erythrocytes AChE; purchased Sigma Aldrich; host or cells: human erythrocytes (natural source)", "T4 sequence (P22303 32-617 isoform P22303-2 limits assumed)": "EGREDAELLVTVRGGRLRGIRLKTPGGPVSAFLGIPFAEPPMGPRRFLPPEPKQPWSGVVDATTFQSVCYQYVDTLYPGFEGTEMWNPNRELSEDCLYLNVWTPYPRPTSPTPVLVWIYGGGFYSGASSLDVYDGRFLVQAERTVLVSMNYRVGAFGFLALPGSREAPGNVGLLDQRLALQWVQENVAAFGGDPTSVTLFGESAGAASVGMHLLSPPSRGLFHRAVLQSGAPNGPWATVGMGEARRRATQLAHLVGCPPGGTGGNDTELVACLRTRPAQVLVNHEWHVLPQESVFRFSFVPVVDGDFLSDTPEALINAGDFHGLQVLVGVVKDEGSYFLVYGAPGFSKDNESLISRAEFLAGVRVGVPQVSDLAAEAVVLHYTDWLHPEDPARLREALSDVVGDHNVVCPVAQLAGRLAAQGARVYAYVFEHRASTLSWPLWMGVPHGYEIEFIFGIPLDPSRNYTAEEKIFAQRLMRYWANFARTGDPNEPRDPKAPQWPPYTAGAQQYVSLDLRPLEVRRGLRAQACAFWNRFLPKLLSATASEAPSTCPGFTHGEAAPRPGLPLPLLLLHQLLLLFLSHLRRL", "test": "biochemical", "conditions": "from human erythrocytes; read-out: IC50 ± SD hAChE", "protocol": "(§6) Acetylcholinesterase (eeAChE, from the electric eel; hAChE, from human erythrocytes AChE), butyrylcholinesterase (eqBuChE, from equine serum; hBuChE, human serum BuChE), 5,5′-dithiobis-2-nitrobenzoic acid (Ellman’s reagent, DTNB), acetylthiocholine chloride (ATC), and butyrylthiocholine chloride (BTC) were purchased form Sigma Aldrich. The determination of AChE and BuChE inhibitory potency of the synthesised compounds were evaluated by Ellman assay, the detailed procedure referred to our previous work[26]^,[27]."}, "hBuChE [3]": {"target": "T1, hBuChE", "test": "biochemical", "protocol": "as §6"}, "[4]": {"conditions": "AChE from electric eel, read-out: IC50 ± SD eeAChE"}}, "note": "Several values for one entry are separate records, joined by “and”; a condition that tells them apart may be missing. Identical values can stand only once. Like-named read-outs stand apart in the source and are kept apart here."}
{"smiles": "CCN(C)C(=O)Oc1cccc([C@H](C)N(C)C)c1", "note": "[Rivastigmine, reference compound]", "values": [{"measurement": "hBuChE activity (% control)", "setting": "hBuChE [1]; 0.1*IC50, diluted", "result": 46.9, "unit": "% control"}, {"measurement": "hBuChE activity restored", "setting": "hBuChE [1]; 0.1 × IC50, 120 min", "result": 62.3, "unit": "%"}, {"measurement": "hBuChE activity restored", "setting": "hBuChE [1]; 0.1 × IC50, 240 min", "result": 121.8, "unit": "%"}, {"measurement": "hBuChE activity (% control)", "setting": "hBuChE [1]; 1*IC50, diluted", "result": 52.3, "unit": "% control"}, {"measurement": "hBuChE activity (% control)", "setting": "hBuChE [1]; 1*IC50, undiluted", "result": 51.4, "unit": "% control"}]}
{"smiles": "CCN(C)C(=O)Oc1cccc2cccnc12", "note": "[Compound 3o, Quinolin-8-yl ethyl(methyl)carbamate]", "values": [{"measurement": "IC50", "setting": "eeAChE", "result": "8.2 ± 0.06", "unit": "µM"}, {"measurement": "inhibition at 25 µM", "setting": "eqBuChE", "result": "4.1 ± 0.02", "unit": "%"}]}
{"smiles": "COc1cc2c(cc1OC)C(=O)C(CC1CCN(Cc3ccccc3)CC1)C2", "note": "(stereo not drawn) [Donepezil, reference compound]", "values": [{"measurement": "ACh activity (level)", "setting": "ACh", "result": 14.0, "unit": "pmol/L"}]}
{"smiles": "CCN(C)C(=O)Oc1cccc2ncccc12", "note": "[Compound 3g, Quinolin-5-yl ethyl(methyl)carbamate]", "values": [{"measurement": "IC50", "setting": "eeAChE", "result": "3.2 ± 0.05", "unit": "µM"}, {"measurement": "IC50", "setting": "eqBuChE; IC50 ± SD eqBuChE", "result": "2.23 µM and 2.2 µM"}, {"measurement": "SI = IC50 (AChE)/IC50 (BuChE)", "setting": "eqBuChE", "result": 1.4}]}
{"smiles": "CN(C)C(=O)Oc1cccc2cccnc12", "note": "[Compound 3m, Quinolin-8-yl dimethylcarbamate]", "values": [{"measurement": "IC50", "setting": "eeAChE", "result": "6.5 ± 0.05", "unit": "µM"}, {"measurement": "neuroprotective effect on Aβ25-35-induced PC12 cells injury", "setting": "[2]", "result": "significant neuroprotective effects at 5 and 10 µM"}, {"measurement": "levels of IL-1β compared with model group", "setting": "IL-1β", "result": "did not obviously decrease"}, {"measurement": "cell viability of BV-2 cells", "setting": "BV-2 cells", "result": "did not show obvious change"}, {"measurement": "cytotoxicity on PC12 cells", "setting": "PC12 cells", "result": "did not show any cytotoxicity"}, {"measurement": "inhibition at 25 µM", "setting": "eqBuChE", "result": "7.3 ± 0.05", "unit": "%"}, {"measurement": "levels of IL-6 compared with model group", "setting": "IL-6", "result": "significantly decreased"}, {"measurement": "release volume of NO", "setting": "NO", "result": "significantly decreased"}]}
{"smiles": "O=C(Oc1cccc2ncccc12)N1CCOCC1", "note": "[Compound 3h, Quinolin-5-yl morpholine-4-carboxylate]", "values": [{"measurement": "IC50", "setting": "eeAChE; [4]", "result": "12.9 ± 0.07", "unit": "µM"}, {"measurement": "IC50", "setting": "eqBuChE; read-out: IC50 ± SD eqBuChE", "result": "1.76 µM and 1.8 µM"}, {"measurement": "SI = IC50 (AChE)/IC50 (BuChE)", "setting": "eqBuChE", "result": 7.2}]}
{"smiles": "O=C(Oc1ccnc2ccccc12)N1CCOCC1", "note": "[Compound 3d, Quinolin-4-yl morpholine-4-carboxylate]", "values": [{"measurement": "IC50", "setting": "hAChE", "result": "26.9 ± 0.74", "unit": "µM"}, {"measurement": "IC50", "setting": "hBuChE [3]; from human serum, read-out: IC50 ± SD hBuChE", "result": "9.46 µM and 9.5 µM"}, {"measurement": "SI = IC50 (AChE)/IC50 (BuChE)", "setting": "hBuChE [3]; hAChE/hBuChE", "result": 2.8}, {"measurement": "IC50", "setting": "eeAChE; [4]", "result": "15.7 ± 0.27", "unit": "µM"}, {"measurement": "IC50", "setting": "eqBuChE; read-out: IC50 ± SD eqBuChE", "result": "0.87 ± 0.05", "unit": "µM"}, {"measurement": "SI = IC50 (AChE)/IC50 (BuChE)", "setting": "eqBuChE", "result": 18.0}]}
{"smiles": "O=C(Oc1ccc2ncccc2c1)N1CCOCC1", "note": "[Compound 3l, Quinolin-6-yl morpholine-4-carboxylate]", "values": [{"measurement": "IC50", "setting": "eeAChE; [4]", "result": "17.6 ± 0.61", "unit": "µM"}, {"measurement": "inhibition at 25 µM", "setting": "eqBuChE; at 25 μM of compounds", "result": "13.8 ± 0.61", "unit": "%"}]}
